US20210322422A1, “USE OF AKT INHIBITORS IN OPHTHALMOLOGY” (Hoffmann-La Roche Inc., priority 2018, published 2021)
“Also recorded” adds a separate entry of the source.

Assays:
Format in all cases: in vivo, mouse
[1] = test system: Cryba1 cKO mice; assay: histological sections (H&E) of retina after intravitreal injection; settings: 1 year old, versus vehicle
Procedure: (§1) Cryba1^fl/fl and Cryba1 cKO mice (Male, 12 months old; n=4) were anaesthetized by intraperitoneal injection of 0.15 ml of ketamine (2.5 mg/ml)+ xylazine (0.5 mg/ml) mixture. Topical anesthesia (proparacaine hydrochloride) was applied to the eye and pupils dilated with a drop of topical 2.5% phenylephrine hydrochloride ophthalmic solution. The eye was proptosed by slight depression of the lower lid with blunt curved forceps and washed with sterile saline. […] All instruments were sterilized with a steam autoclave. Bacitracin Ophthalmic ointment was applied postoperatively^6. Animals were euthanized with CO2 gas four weeks after the first injection and the retinas were harvested.
For hematoxylin and eosin (H&E) staining, eyes from NOD-SCID mice (n=10) were enucleated and fixed initially in 2.5% glutaraldehyde for 72 h, followed by 10% buffered formalin. The eyes were embedded in methyl-methacrylate, sectioned and stained as previously described″.

[2] = test system: Cryba1 cKO mice; assay: flow cytometry estimation of percentage neutrophils in retina after intravitreal injection; settings: male, 12 months old, intravitreal 500 uM, once weekly for three weeks, versus vehicle or untreated
Procedure: Mouse retinas were dissected from enucleated eyes and digested with 0.05% collagenase D at 37° C. for 30 min, teased with blunt end forceps and pipetted to release cells, passed through a 70 μm cell strainer, centrifuged at 1,300 g, 4° C. for 20 minutes^10. The entire pellet was used for staining with the FITC-tagged cell surface markers CD45, V450-tagged Ly6G and Alexa fluor 700-tagged CD11b (BD Pharmigen™, USA) at a concentration of 1 μg/ml in PBS containing 1% BSA for 1 h. Cells were washed and analyzed on a flow cytometer (BD Aria III, FACS DIVA software, BD Biosciences, USA and FlowJo software-version 7.6.5), SSC-A/CD45+(FITC) cells were manually gated and among this population of cells; % Ly6G+ and % CD11b+Ly6G+ cells were quantified.
as §1, with “Animals were euthanized with CO2 gas four weeks after the first injection and the retinas were harvested.” left out

[3] = test system: AKT2 (p-AKT2 S474); assay: immunoblot of AKT2 phosphorylation in retinas after intravitreal injection; settings: 1-year-old Cryba1 cKO mice
Procedure: SDS-PAGE and western blot analyses were performed as previously described^12. The primary antibodies were used at a dilution of 1:1000 whereas, all secondary antibodies were used at a dilution of 1:3000.
as §1

[4] = test system: Cryba1 cKO mice; assay: ELISA of CXCL1 and IFNλ in RPE-choroid after intravitreal injection; settings: versus age-matched vehicle and untreated
Procedure: The RPE choroid complexes harvested from freshly enucleated mouse eyes were kept on ice and then homogenized in 300 μL of complete extraction buffer (Abcam, USA) per 5 mg of tissue. The homogenized tissue was allowed to stay in constant agitation for 2 h at 4° C., centrifuged at 13,000 rpm at 4° C. for 20 min. The supernatants were aliquoted and stored at −80° C. and were subsequently used to perform ELISA to evaluate the levels of IFNλ, and CXCL1, as previously described^13.
as §1

NC1(Cc2ccc(Cl)cc2)CCN(c2ncnc3[nH]ccc23)CC1 [CCT128930]
retinal structure / early RPE abnormalities (H&E) [1]: exhibited normal structure; also recorded: reverses these early RPE abnormalities | infiltrating neutrophils (% Ly6G+ and % CD11b+Ly6G+ cells) in retina [2]: decrease in infiltrating neutrophils; also recorded: significantly fewer neutrophils in the retinas | levels of total AKT in retina ([3]; immunoblot): levels of total AKT did not change | levels of pAKT2 (p-AKT2 S474) in retina ([3]; immunoblot densitometry, versus vehicle): significantly decreased the levels of pAKT2; also recorded: reduced | CXCL1 levels in RPE-choroid [4]: reduced levels | IFNλ levels in RPE-choroid [4]: reduced levels
